Measured values: patent publication US7709636B2, “Pyrazole sulfonylurea compound and herbicide” (Nissan Chemical Industries, Ltd., priority 2004, dated 2010)

Key:
Abutilon avicennae [1] = experiment: Herbicidal effect test by foliage treatment; format: in vivo; conditions: 1.6 g/a; foliage treatment after growth of 14 days; 3 weeks after treatment
In short: (§1)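 Post-emergence foliar spray: plants raised 14 d in greenhouse (25–30° C) from seed in sterilized diluvial soil, sprayed with diluted wettable powder formulation, injury rated visually at 3 wk.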

Digitaria adscendes [2] = experiment: Herbicidal effect test by foliage treatment; format: in vivo; conditions: 1.6 g/a; foliage treatment after growth of 14 days; 3 weeks after treatment
In short: as §1

Black-grass [3] = experiment: Herbicidal effect test by foliage treatment; format: in vivo; conditions: 1.6 g/a; foliage treatment after growth of 14 days; 3 weeks after treatment
In short: as §1

soybean (Glycine max) [4] = experiment: Herbicidal effect test by foliage treatment; format: in vivo; conditions: 1.6 g/a; foliage treatment after growth of 14 days; 3 weeks after treatment
In short: as §1

corn (Zea mays) [5] = experiment: Herbicidal effect test by foliage treatment; format: in vivo; conditions: 1.6 g/a; foliage treatment after growth of 14 days; 3 weeks after treatment
In short: as §1

Echinochloa crus-galli [6] = experiment: Herbicidal effect test by foliage treatment; format: in vivo; conditions: 1.6 g/a; foliage treatment after growth of 14 days; 3 weeks after treatment
In short: as §1

[7] = system: Triticum aestivum (wheat); experiment: Herbicidal effect test by foliage treatment; format: in vivo; conditions: 1.6 g/a; foliage treatment after growth of 14 days; 3 weeks after treatment
In short: as §1

Polygonum blumei [8] = experiment: Herbicidal effect test by foliage treatment; format: in vivo; conditions: 1.6 g/a; foliage treatment after growth of 14 days; 3 weeks after treatment
In short: as §1

Chenopodium album [9] = experiment: Herbicidal effect test by foliage treatment; format: in vivo; conditions: 1.6 g/a; foliage treatment after growth of 14 days; 3 weeks after treatment
In short: as §1

Beta vulgaris (beet) [10] = experiment: Herbicidal effect test by foliage treatment; format: in vivo; conditions: 1.6 g/a; foliage treatment after growth of 14 days; 3 weeks after treatment
In short: as §1

Setaria viridis [11] = experiment: Herbicidal effect test by foliage treatment; format: in vivo; conditions: 1.6 g/a; foliage treatment after growth of 14 days; 3 weeks after treatment
In short: as §1

Ambrosia elatior [12] = experiment: Herbicidal effect test by foliage treatment; format: in vivo; conditions: 1.6 g/a; foliage treatment after growth of 14 days; 3 weeks after treatment
In short: as §1

Amaranthus retroflexus [13] = experiment: Herbicidal effect test by foliage treatment; format: in vivo; conditions: 1.6 g/a; foliage treatment after growth of 14 days; 3 weeks after treatment
In short: as §1

Stellaria media [14] = experiment: Herbicidal effect test by foliage treatment; format: in vivo; conditions: 1.6 g/a; foliage treatment after growth of 14 days; 3 weeks after treatment
In short: as §1

Avena fatua [15] = experiment: Herbicidal effect test by foliage treatment; format: in vivo; conditions: 1.6 g/a; foliage treatment after growth of 14 days; 3 weeks after treatment
In short: as §1

direct sown rice [16] = experiment: Herbicidal effect test by soil treatment; format: in vivo, Oryza sativa; conditions: 1.6 g/a, 3 weeks after treatment
In short: (§2)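 Pre-emergence soil application: wettable powder formulation, water-diluted to set dose, sprayed evenly over soil surface after sowing; seeds under ~1.5 cm sterilized diluvial soil. Effect rated at 3 wk by criteria scale.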

Echinochloa crus-galli [17] = experiment: Herbicidal effect test in submerged condition by treatment during weed-growth stage (1); format: in vivo; conditions: 0.64 g/a, treated at 1st to 2nd leaf stage, 3 weeks after treatment
In short: (§3)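 Paddy-soil pots flooded to 4 cm water depth were sown and grown in a greenhouse at 25 to 30° C until weeds reached 1st to 2nd leaf stage. A wettable powder diluted in water to a predetermined formulation amount was applied to the water surface. Herbicidal effect was scored 3 weeks after treatment against set criteria.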

Scirpus juncoides = experiment: as above; format: in vivo; conditions: 0.64 g/a, treated at 1st to 2nd leaf stage, 3 weeks after treatment
In short: as §3

Monochoria vaginalis = experiment: as above; format: in vivo; conditions: 0.64 g/a, treated at 1st to 2nd leaf stage, 3 weeks after treatment
In short: as §3

Abutilon avicennae [18] = experiment: Herbicidal effect test by soil treatment; format: in vivo; conditions: 1.6 g/a, 3 weeks after treatment
In short: as §2

Digitaria adscendes [19] = experiment: Herbicidal effect test by soil treatment; format: in vivo; conditions: 1.6 g/a, 3 weeks after treatment
In short: as §2

Black-grass [20] = experiment: Herbicidal effect test by soil treatment; format: in vivo; conditions: 1.6 g/a, 3 weeks after treatment
In short: as §2

soybean (Glycine max) [21] = experiment: Herbicidal effect test by soil treatment; format: in vivo; conditions: 1.6 g/a, 3 weeks after treatment
In short: as §2

corn (Zea mays) [22] = experiment: Herbicidal effect test by soil treatment; format: in vivo; conditions: 1.6 g/a, 3 weeks after treatment
In short: as §2

Echinochloa crus-galli [23] = experiment: Herbicidal effect test by soil treatment; format: in vivo; conditions: 1.6 g/a, 3 weeks after treatment
In short: as §2

[24] = system: Triticum aestivum (wheat); experiment: Herbicidal effect test by soil treatment; format: in vivo; conditions: 1.6 g/a, 3 weeks after treatment
In short: as §2

Polygonum blumei [25] = experiment: Herbicidal effect test by soil treatment; format: in vivo; conditions: 1.6 g/a, 3 weeks after treatment
In short: as §2

Chenopodium album [26] = experiment: Herbicidal effect test by soil treatment; format: in vivo; conditions: 1.6 g/a, 3 weeks after treatment
In short: as §2

Beta vulgaris (beet) [27] = experiment: Herbicidal effect test by soil treatment; format: in vivo; conditions: 1.6 g/a, 3 weeks after treatment
In short: as §2

Setaria viridis [28] = experiment: Herbicidal effect test by soil treatment; format: in vivo; conditions: 1.6 g/a, 3 weeks after treatment
In short: as §2

Ambrosia elatior [29] = experiment: Herbicidal effect test by soil treatment; format: in vivo; conditions: 1.6 g/a, 3 weeks after treatment
In short: as §2

Amaranthus retroflexus [30] = experiment: Herbicidal effect test by soil treatment; format: in vivo; conditions: 1.6 g/a, 3 weeks after treatment
In short: as §2

Stellaria media [31] = experiment: Herbicidal effect test by soil treatment; format: in vivo; conditions: 1.6 g/a, 3 weeks after treatment
In short: as §2

Avena fatua [32] = experiment: Herbicidal effect test by soil treatment; format: in vivo; conditions: 1.6 g/a, 3 weeks after treatment
In short: as §2

direct sown rice [33] = experiment: Herbicidal effect test by foliage treatment; format: in vivo, Oryza sativa; conditions: 1.6 g/a; foliage treatment after growth of 14 days; 3 weeks after treatment
In short: as §1

COc1cc(OC)nc(NC(=O)NS(=O)(=O)c2c(C3=NOCC(C)(CI)O3)c(Cl)nn2C)n1 (centres unmarked) [Compound 4, N-((4,6-dimethoxypyrimidin-2-yl)aminocarbonyl)-3-chloro-4-(5-iodomethyl-5-methyl-5H,6H-1,4,2-dioxadin-3-yl)-1-methylpyrazole-5-sulfonamide]
herbicidal effect, H: Abutilon avicennae (Abutilon avicennae [1]): 4 (Herbicidal rate 70% or more and less than 90%)
herbicidal effect, D: Digitaria adscendes (Digitaria adscendes [2]): 0 (Herbicidal rate 5% or less (little effect))
herbicidal effect, G: Black-grass (Black-grass [3]): 0 (Herbicidal rate 5% or less (little effect))
herbicidal effect, c: soybean (Glycine max) (soybean (Glycine max) [4]): 3 (Herbicidal rate 40% or more and less than 70%)
herbicidal effect, b: corn (Zea mays) (corn (Zea mays) [5]): 0 (Herbicidal rate 5% or less (little effect))
herbicidal effect, A: Echinochloa crus-galli (Echinochloa crus-galli [6]): 0 (Herbicidal rate 5% or less (little effect))
herbicidal effect, e: Triticum aestivum (wheat) [7]: 0 (Herbicidal rate 5% or less (little effect))
herbicidal effect, L: Polygonum blumei (Polygonum blumei [8]): 3 (Herbicidal rate 40% or more and less than 70%)
herbicidal effect, K: Chenopodium album (Chenopodium album [9]): 4 (Herbicidal rate 70% or more and less than 90%)
herbicidal effect, f: Beta vulgaris (beet) (Beta vulgaris (beet) [10]): 1 (Herbicidal rate 5% or more and less than 20%)
herbicidal effect, E: Setaria viridis (Setaria viridis [11]): 0 (Herbicidal rate 5% or less (little effect))
herbicidal effect, I: Ambrosia elatior (Ambrosia elatior [12]): 3 (Herbicidal rate 40% or more and less than 70%)
herbicidal effect, J: Amaranthus retroflexus (Amaranthus retroflexus [13]): 2 (Herbicidal rate 20% or more and less than 40%)
herbicidal effect, M: Stellaria media (Stellaria media [14]): 2 (Herbicidal rate 20% or more and less than 40%)
herbicidal effect, F: Avena fatua (Avena fatua [15]): 0 (Herbicidal rate 5% or less (little effect))
herbicidal effect, d: direct sown rice (direct sown rice [16]): 0 (Herbicidal rate 5% or less (little effect))
herbicidal effect, A: Echinochloa crus-galli (Echinochloa crus-galli [17]): 0 (Herbicidal rate 5% or less (little effect))
herbicidal effect, B: Scirpus juncoides (Scirpus juncoides): 3 (Herbicidal rate 40% or more and less than 70%)
herbicidal effect, C: Monochoria vaginalis (Monochoria vaginalis): 3 (Herbicidal rate 40% or more and less than 70%)
herbicidal effect, H: Abutilon avicennae (Abutilon avicennae [18]): 0 (Herbicidal rate 5% or less (little effect))
herbicidal effect, D: Digitaria adscendes (Digitaria adscendes [19]): 0 (Herbicidal rate 5% or less (little effect))
herbicidal effect, G: Black-grass (Black-grass [20]): 0 (Herbicidal rate 5% or less (little effect))
herbicidal effect, c: soybean (Glycine max) (soybean (Glycine max) [21]): 0 (Herbicidal rate 5% or less (little effect))
herbicidal effect, b: corn (Zea mays) (corn (Zea mays) [22]): 0 (Herbicidal rate 5% or less (little effect))
herbicidal effect, A: Echinochloa crus-galli (Echinochloa crus-galli [23]): 0 (Herbicidal rate 5% or less (little effect))
herbicidal effect, e: Triticum aestivum (wheat) [24]: 0 (Herbicidal rate 5% or less (little effect))
herbicidal effect, L: Polygonum blumei (Polygonum blumei [25]): 0 (Herbicidal rate 5% or less (little effect))
herbicidal effect, K: Chenopodium album (Chenopodium album [26]): 1 (Herbicidal rate 5% or more and less than 20%)
herbicidal effect, f: Beta vulgaris (beet) (Beta vulgaris (beet) [27]): 0 (Herbicidal rate 5% or less (little effect))
herbicidal effect, E: Setaria viridis (Setaria viridis [28]): 0 (Herbicidal rate 5% or less (little effect))
herbicidal effect, I: Ambrosia elatior (Ambrosia elatior [29]): 2 (Herbicidal rate 20% or more and less than 40%)
herbicidal effect, J: Amaranthus retroflexus (Amaranthus retroflexus [30]): 0 (Herbicidal rate 5% or less (little effect))
herbicidal effect, M: Stellaria media (Stellaria media [31]): 1 (Herbicidal rate 5% or more and less than 20%)
herbicidal effect, F: Avena fatua (Avena fatua [32]): 0 (Herbicidal rate 5% or less (little effect))
herbicidal effect, d: direct sown rice (direct sown rice [33]): 0 (Herbicidal rate 5% or less (little effect))
